{"source": "patent US12306171B2", "about": "“Method for detecting indicator of immune-related disease” (MANDOM CORPORATION, priority 2018, dated 2025)", "key": {"[1]": {"tested_on": "adhesive cell in peripheral blood mononuclear cells collected from an asthmatic patient", "assay": "Morphology and adhesive cells of peripheral blood mononuclear cells from an asthmatic patient after culture in steroid-containing medium", "format": "cell-based, human", "conditions": "10 μM steroid, 0.1 v/v % DMSO, 10 v/v % FBS RPMI1640, 37° C., 24 hours; asthmatic patient PBMC; FIG. 10", "procedure": "Using 10 mL of peripheral blood collected from an asthmatic patient and 15 mL of a human lymphocyte-separation medium (manufactured by GE Healthcare, trade name: Ficoll-Paque PLUS), peripheral blood mononuclear cells were separated from the peripheral blood, according to a density gradient centrifugation method. Some of the separated peripheral blood mononuclear cells were cultured in a steroid-containing medium (RPMI1640 medium containing 10 μM hydrocortisone or 10 μM dexamethasone, 0.1 v/v % DMSO and 10 v/v % FBS) or a control medium (RPMI1640 medium containing 0.1 v/v % DMSO and 10 v/v % FBS) in a culture vessel at 37° C. for 24 hours. The morphology and state of the obtained cell were observed by an inverted phase contrast microscope (manufactured by Leica Microsystems, trade name: DM IL LED). […]"}, "[2]": {"tested_on": "primary cilium of immune cell (peripheral blood mononuclear cells from an asthmatic patient)", "assay": "Formation rate of primary cilium in immune cell after culture in steroid-containing medium", "format": "cell-based, human", "conditions": "10 μM steroid, 37° C., 24 hours; nonadherent cells from asthmatic patient PBMC; FIG. 11", "procedure": "Using 10 mL of peripheral blood collected from an asthmatic patient and 15 mL of a human lymphocyte-separation medium (manufactured by GE Healthcare, trade name: Ficoll-Paque PLUS), peripheral blood mononuclear cells were separated from the peripheral blood, according to a density gradient centrifugation method. Some of the separated peripheral blood mononuclear cells were fixed with 4 v/v % PFA-containing PBS solution. The fixed cells were blocked and permeabilized by incubating the cells in a blocking/permeabilizing agent, to give a sample containing uncultured cells.\nSome of the separated peripheral blood mononuclear cells were cultured in a steroid-containing medium (RPMI1640 medium containing 10 μM hydrocortisone or 10 μM dexamethasone, 0.1 v/v % DMSO and 10 v/v % FBS) at 37° C. for 24 hours. Then, nonadherent cells suspended in each medium were collected. Immediately after collection, each of the collected cells was fixed with 4 v/v % PFA-containing PBS solution. […]\nNext, the total number of immune cells and the number of primary cilia in an immune cell were obtained by using observations of cells contained in each sample. Then, the formation rate of a primary cilium in an immune cell was calculated in accordance with the formula (Ic): [Formation rate of primary cilium in immune cell]=[(Number of primary cilia in immune cell)/(Total number of immune cells)]×100 (Ic). […]"}}}
{"molecule": "C[C@]12CCC(=O)C=C1CC[C@@H]1[C@@H]2[C@@H](O)C[C@@]2(C)[C@H]1CC[C@]2(O)C(=O)CO", "note": "[hydrocortisone]", "values": [{"measurement": "presence of adhesive cell after culture (morphology, phase contrast microscope)", "setting": "[1]", "value": "the adhesive cell disappears"}, {"measurement": "formation rate of a primary cilium of the immune cell in the nonadherent cell, versus control medium", "setting": "[2]", "value": "significantly lower"}]}
